According to patent publication US8846908B2, “Tricyclic carbamate JAK inhibitors” (Rigel Pharmaceuticals, Inc., priority 2008, dated 2014):

target: BaF3 V617F cells (Homo sapiens, UniProt O60674, V617F, cells depend on it); assay: Proliferation assay, BaF3 V617F cells (Cell Titer-Glo); assay type: cell-based, mouse; details: proliferation for 72 hours at 37° C., stated to show ability to inhibit JAK2 activity, read-out: IC50 (the source's name)
Description: BaF3 V617F cells are maintained and plated in RPMI with 10% FBS. Plating density for these cells is 1×10^5 cells/mL.
The cells were resuspended in a corresponding medium at a required cell density (see above). 100μ of cell suspension was added to each well of a flat bottom 96 well white plate. The compound was serially diluted in DMSO from 5 mM in 3-fold dilutions, and then diluted 1:250 in the RPMI 1640 medium containing 5% FBS and pen/strep. 100 μL of resulting 2× compound solution was added per well in duplicate and the cells were allowed to proliferate for 72 hours at 37° C.
Proliferation was measured using Cell Titer-Glo. The substrate was thawed and allowed to come to room temperature. After removal of top 100 μL of medium from each well, 100 μL of the premixed Cell Titer-Glo reagent was added to each well. The plates were mixed on an orbital shaker for three minutes to induce lysis and incubated at ambient temperature for an additional five minutes to allow the signal to equilibrate. The Luminescence was read on the Wallac Plate Reader.
The results of the ability of the compounds of the invention to inhibit JAK2 activity, when tested in the above assay, are shown in the following Table 2 wherein the level of activity (i.e., the IC50) for each compound is indicated in Table 2. The compound numbers in Table 2 refers to the compounds disclosed herein as being prepared by the methods disclosed herein.

BaF3 V617F cells, sequence (O60674 whole entry V617F): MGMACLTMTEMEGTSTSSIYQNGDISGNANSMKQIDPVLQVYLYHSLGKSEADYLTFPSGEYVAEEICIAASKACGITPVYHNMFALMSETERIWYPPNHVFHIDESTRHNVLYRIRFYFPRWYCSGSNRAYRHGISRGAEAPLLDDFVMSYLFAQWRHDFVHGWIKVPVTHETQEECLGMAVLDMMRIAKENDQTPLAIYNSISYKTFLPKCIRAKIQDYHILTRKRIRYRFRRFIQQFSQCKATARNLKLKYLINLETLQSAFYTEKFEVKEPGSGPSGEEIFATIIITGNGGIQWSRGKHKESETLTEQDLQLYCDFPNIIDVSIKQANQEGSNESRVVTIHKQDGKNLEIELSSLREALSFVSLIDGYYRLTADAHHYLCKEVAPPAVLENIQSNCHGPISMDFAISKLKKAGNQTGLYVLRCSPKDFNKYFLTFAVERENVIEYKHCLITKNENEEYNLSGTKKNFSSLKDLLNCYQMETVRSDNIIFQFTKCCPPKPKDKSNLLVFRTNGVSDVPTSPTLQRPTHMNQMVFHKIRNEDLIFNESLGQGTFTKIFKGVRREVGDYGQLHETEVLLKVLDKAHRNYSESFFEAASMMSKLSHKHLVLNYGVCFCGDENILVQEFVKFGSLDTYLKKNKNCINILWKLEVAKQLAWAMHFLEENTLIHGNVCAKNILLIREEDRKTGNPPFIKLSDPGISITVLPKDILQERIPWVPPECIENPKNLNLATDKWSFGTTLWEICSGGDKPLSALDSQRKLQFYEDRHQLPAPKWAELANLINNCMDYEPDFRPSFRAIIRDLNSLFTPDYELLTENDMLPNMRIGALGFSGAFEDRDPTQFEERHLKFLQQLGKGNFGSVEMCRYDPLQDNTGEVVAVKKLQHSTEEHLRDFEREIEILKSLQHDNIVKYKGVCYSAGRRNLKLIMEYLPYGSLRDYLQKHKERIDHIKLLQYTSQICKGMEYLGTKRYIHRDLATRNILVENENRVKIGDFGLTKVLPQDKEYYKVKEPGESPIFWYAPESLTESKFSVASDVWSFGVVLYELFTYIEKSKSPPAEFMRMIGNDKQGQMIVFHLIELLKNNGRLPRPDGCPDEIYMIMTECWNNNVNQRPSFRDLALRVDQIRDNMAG

| Compound | GI50 [nM] |
| --- | --- |
| O=C1N[C@@H]2c3cc(Nc4ncc(F)c(Nc5ccc(OCc6ccccn6)cc5)n4)ccc3C[C@@H]2O1 [Compound 26, 5-Fluoro-N2-[(3aR,8aS)-2-oxo-3,3a,8,8a-tetrahydro-2H-indeno[1,2-d]oxazol-5-yl]-N4-[4-(pyridin-2-ylmethoxy)phenyl]-2,4-pyrimidinediamine] | 1000 to 5000 |
| Cc1cnc(Nc2ccc3c(c2)[C@H]2NC(=O)O[C@H]2C3)nc1Nc1ccc(OCc2ccccn2)cc1 [Compound 27, 5-Methyl-N2-[(3aR,8aS)-2-oxo-3,3a,8,8a-tetrahydro-2H-indeno[1,2-d]oxazol-5-yl]-N4-[4-(pyridin-2-ylmethoxy)phenyl]-2,4-pyrimidinediamine] | 250 to 500 |
| CC(C)(C)NS(=O)(=O)c1cccc(Nc2nc(Nc3ccc4c(c3)[C@@H]3NC(=O)O[C@@H]3C4)ncc2Cl)c1 [Compound 14, 5-Chloro-N4-[3-[[(1,1-dimethylethyl)amino]sulfonyl]phenyl]-N2-[(3aS,8aR)-2-oxo-3,3a,8,8a-tetrahydro-2H-indeno[1,2-d]oxazol-5-yl]-2,4-pyrimidinediamine] | 500 to 1000 |
| Cc1cc(CNS(=O)(=O)C2CC2)ccc1Nc1nc(Nc2ccc3c(c2)[C@@H]2NC(=O)OC2C3)ncc1C (some centres unmarked) [Compound 18] | 1000 to 5000 |
| O=C1N[C@H]2c3cc(Nc4ncc(Cl)c(Nc5cccc6c5CCCC6)n4)ccc3C[C@H]2O1 [Compound 21, 5-Chloro-N2-[(3aS,8aR)-2-oxo-3,3a,8,8a-tetrahydro-2H-indeno[1,2-d]oxazol-5-yl]-N4-(5,6,7,8-tetrahydronaphthalen-1-yl)2,4-pyrimidinediamine] | 500 to 1000 |
| Cc1cnc(Nc2ccc3c(c2)[C@H]2NC(=O)O[C@H]2C3)nc1Nc1ccc(OCc2cccnc2)cc1 [Compound 31, 5-Methyl-N2-[(3aR,8aS)-2-oxo-3,3a,8,8a-tetrahydro-2H-indeno[1,2-d]oxazol-5-yl]-N4-[4-(pyridin-3-ylmethoxy)phenyl]-2,4-pyrimidinediamine] | 250 to 500 |
| Cc1cnc(Nc2ccc3c(c2)[C@H]2NC(=O)O[C@H]2C3)nc1Nc1ccc2c(c1)N(C)C(=O)C(C)(C)O2 [Compound 2, 5-Methyl-N2-[(3aR,8aS)-2-oxo-3,3a,8,8a-tetrahydro-2H-indeno[1,2-d]oxazol-5-yl]-N4-(2,2,4-trimethyl-3-oxo-benz[1,4]oxazin-6-yl)-2,4-pyrimidinediamine] | < 250 |
| O=C1N[C@H]2c3cc(Nc4ncc(Cl)c(Nc5cccc6c5CCC6)n4)ccc3CC2O1 (some centres unmarked) [Compound 19] | ≥ 5000 |
| O=C1N[C@H]2c3cc(Nc4ncc(Cl)c(Nc5cccc6c5OCCO6)n4)ccc3C[C@H]2O1 [Compound 23, N4-(1,4-Benzodioxan-5-yl)-5-chloro-N2-[(3aS,8aR)-2-oxo-3,3a,8,8a-tetrahydro-2H-indeno[1,2-d]oxazol-5-yl]-2,4-pyrimidinediamine] | 1000 to 5000 |
| CCN1C(=O)C(C)(C)Oc2ccc(Nc3nc(Nc4ccc5c(c4)[C@@H]4NC(=O)O[C@@H]4C5)ncc3Cl)cc21 [Compound 12, 5-Chloro-N4-(2,2-dimethyl-4-ethyl-3-oxo-benz[1,4]oxazin-6-yl)-N2-[(3aS,8aR)-2-oxo-3,3a,8,8a-tetrahydro-2H-indeno[1,2-d]oxazol-5-yl]-2,4-pyrimidinediamine] | 250 to 500 |

Now from value to compound:

| GI50 [nM] | Compound |
| --- | --- |
| < 250 | Cc1cnc(Nc2ccc3c(c2)[C@@H]2NC(=O)O[C@@H]2C3)nc1Nc1cccc2c1CCC2 [Compound 20, N4-(Indan-4-yl]-5-methyl-N2-[(3aS,8aR)-2-oxo-3,3a,8,8a-tetrahydro-2H-indeno[1,2-d]oxazol-5-yl]-2,4-pyrimidinediamine] |
| < 250 | CN1C(=O)C(C)(C)Oc2ccc(Nc3nc(Nc4ccc5c(c4)[C@@H]4NC(=O)O[C@@H]4C5)ncc3Cl)cc21 [Compound 10, 5-Chloro-N2-[(3aS,8aR)-2-oxo-3,3a,8,8a-tetrahydro-2H-indeno[1,2-d]oxazol-5-yl]-N4-(2,2,4-trimethyl-3-oxo-benz[1,4]oxazin-6-yl)-2,4-pyrimidinediamine] |
| < 250 | Cc1cnc(Nc2ccc3c(c2)[C@H]2NC(=O)O[C@H]2C3)nc1Nc1cccc2c1CCC2 [Compound 35, N4-(Indan-4-yl]-5-methyl-N2-[(3aR,8aS)-2-oxo-3,3a,8,8a-tetrahydro-2H-indeno[1,2-d]oxazol-5-yl]-2,4-pyrimidinediamine] |
| < 250 | Cc1cnc(Nc2ccc3c(c2)[C@H]2NC(=O)O[C@H]2C3)nc1Nc1cccc2c1CCCC2 [Compound 37, 5-Methyl-N2-[(3aR,8aS)-2-oxo-3,3a,8,8a-tetrahydro-2H-indeno[1,2-d]oxazol-5-yl]-N4-(5,6,7,8-tetrahydronaphthalen-1-yl)-2,4-pyrimidinediamine] |
